Tested on: G1 NIH 3T3 nuclei
Test: Cell-free DNA replication assay: G1 nuclei in HeLa S phase cytosol, biotin-dUTP incorporation, percentage of nuclei replicating (staining yellow)
Type: biochemical, mouse
Settings: about 50% yellow staining nuclei without inhibitor
Protocol: Nuclear templates were prepared by Dounce homogenisation as described previously, but from NIH 3T3 cells. G0, quiescent, cells were prepared by allowing NIH 3T3 cells to proliferate until they reached confluence and arrested their proliferation. They were released from quiescence by trypsinization and replating at ¼ the cell density. Cells were harvested as described previously (Krude et al., 1997) at measured times after release from quiescence. The 3T3 cells treated this way pass through G1 and begin to enter S phase synchronously about 21 hrs later. Nuclei and cytosolic extract were produced by hypotonically swelling the cells, scrape harvesting and Dounce-homogenizing. […]
In vitro replication assays were performed in 50 μl reactions in 1.5 ml polypropylene tubes (Sarstedt or Eppendorf). […] Biotin-dUTP incorporation was detected by staining with fluorescein-streptavidin, whilst total DNA was visualized by propidium iodide. […] The percentage of nuclei replicating were calculated from many prints of confocal images. […]
The competence of G1 NIH 3T3 nuclei to replicate was determined by repeating the collection of G1 nuclei at different times following release from G0 arrest and incubating the nuclei with S phase cytosol in accordance with the procedures of Example 1. […]

CC[C@H](CO)Nc1nc(NCc2ccccc2)c2ncn(C(C)C)c2n1 [roscovitin]
decrease of yellow staining nuclei (1 μM): ~5 fold | decrease of yellow staining nuclei (1 mM): ~5 fold

Reference: patent publication US6521405B1, “Cell-free replication system and uses thereof” (Cancer Research Campaign Technology Limited, priority 1997, dated 2003)
